Seven compounds from patent US20200369728A1, “PEPTIDOMIMETIC MACROCYCLES AND USES THEREOF” (Aileron Therapeutics, Inc., priority 2015, published 2020) can be followed below.

In general, EC50 refers to the concentration giving half of the maximal effect.

The subject of the test is SJSA-1. In words: Cell viability assay (MTT), SJSA-1. The following applies: read-out: SJSA-1 EC50 (72 h); 72 h, MTT.
In the case of `CC(=O)N[C@@H](CC(C)C)C(=O)N[C@H](C(=O)N[C@@H](Cc1ccccc1)C(=O)N[C@]1(C)CCCCCCC=CCCC[C@@](C)(C(=O)N[C@@H](C)C(=O)N[C@@H](C)C(=O)N[C@@H](C)C(=O)N[C@H](C)C(=O)N[C@@H](C)C(=O)N[C@H](C)C(N)=O)NC(=O)[C@H](CC(C)C)NC(=O)[C@H](CCC(N)=O)NC(=O)[C@H](C)NC(=O)[C@H](Cc2c[nH]c3ccccc23)NC(=O)[C@H](Cc2ccc(O)cc2)NC(=O)[C@H](CCC(=O)O)NC1=O)[C@@H](C)O` (single isomer, unassigned) [compound 571], the EC50 is under 5 µM.

Regarding `CC(=O)N[C@@H](CC(C)C)C(=O)N[C@H](C(=O)N[C@@H](Cc1ccccc1)C(=O)N[C@]1(C)CCCCCCC=CCCC[C@@](C)(C(=O)N[C@@H](C)C(=O)N[C@@H](C)C(=O)N[C@@H](C)C(=O)N[C@@H](C)C(=O)N[C@@H](C)C(=O)N[C@H](C)C(N)=O)NC(=O)[C@H](CC(C)C)NC(=O)[C@H](CCC(N)=O)NC(=O)[C@H](C)NC(=O)[C@H](Cc2c[nH]c3ccccc23)NC(=O)[C@H](Cc2ccc(O)cc2)NC(=O)[C@H](CCC(=O)O)NC1=O)[C@@H](C)O` (single isomer, unassigned) [compound 579], the EC50 is under 5 µM.

For `CCCC[C@H](NC(=O)[C@H](C)NC(=O)[C@H](C)NC(=O)[C@]1(C)CCCC=CCCCCCC[C@@](C)(NC(=O)[C@H](Cc2ccccc2)NC(=O)[C@@H](NC(=O)[C@H](CC(C)C)NC(C)=O)[C@@H](C)O)C(=O)N[C@@H](C)C(=O)N[C@@H](Cc2ccc(O)cc2)C(=O)N[C@@H](Cc2c[nH]c3ccccc23)C(=O)N[C@@H](C)C(=O)N[C@@H](CCC(N)=O)C(=O)N[C@@H](CC(C)C)C(=O)N1)C(=O)N[C@H](C)C(N)=O` (single isomer, unassigned) [compound 74], the EC50 is under 5 µM.

Regarding `CC(=O)N[C@@H](CC(C)C)C(=O)N[C@H](C(=O)N[C@@H](Cc1ccccc1)C(=O)N[C@]1(C)CCCCCCC=CCCC[C@@](C)(C(=O)N[C@@H](C)C(=O)N[C@@H](C)C(=O)N[C@H](C)C(=O)N[C@@H](C)C(=O)N[C@@H](C)C(=O)N[C@H](C)C(N)=O)NC(=O)[C@H](CC(C)C)NC(=O)[C@H](CCC(N)=O)NC(=O)[C@H](C)NC(=O)[C@H](Cc2c[nH]c3ccccc23)NC(=O)[C@H](Cc2ccc(O)cc2)NC(=O)[C@H](CCC(=O)O)NC1=O)[C@@H](C)O` [compound 569], the EC50 is under 5 µM.

For `CC(=O)N[C@@H](CC(C)C)C(=O)N[C@H](C(=O)N[C@@H](Cc1ccccc1)C(=O)N[C@]1(C)CCCCCC/C=C/CCC[C@@](C)(C(=O)N[C@@H](C)C(=O)N[C@@H](C)C(=O)N[C@@H](C)C(=O)N[C@@H](C)C(=O)N[C@@H](C)C(=O)N[C@@H](C)C(N)=O)NC(=O)[C@H](CC(C)C)NC(=O)[C@H](CCC(N)=O)NC(=O)[C@H](C)NC(=O)[C@H](Cc2c[nH]c3ccccc23)NC(=O)[C@H](Cc2ccc(O)cc2)NC(=O)[C@H](CCC(=O)O)NC1=O)[C@@H](C)O` [compound 573], the EC50 is under 5 µM.

For `CC[C@H](C)[C@H](NC(=O)[C@H](C)NC(=O)[C@H](C)NC(=O)[C@]1(C)CCCCCCC=CCCC[C@@](C)(NC(=O)[C@H](Cc2ccccc2)NC(=O)[C@@H](NC(=O)[C@H](CC(C)C)NC(C)=O)[C@@H](C)O)C(=O)N[C@@H](C)C(=O)N[C@@H](Cc2ccc(O)cc2)C(=O)N[C@@H](Cc2c[nH]c3ccccc23)C(=O)N[C@@H](C)C(=O)N[C@@H](CCC(N)=O)C(=O)N[C@@H](CC(C)C)C(=O)N1)C(=O)N[C@H](C)C(N)=O` [compound 234], the EC50 was under 5 µM.

Consider `CCCC[C@H](NC(=O)[C@H](C)NC(=O)[C@H](C)NC(=O)[C@]1(C)CCCC=CCCCCCC[C@@](C)(NC(=O)[C@H](Cc2ccccc2)NC(=O)[C@@H](NC(=O)[C@H](CC(C)C)NC(C)=O)[C@@H](C)O)C(=O)N[C@@H](C)C(=O)N[C@@H](Cc2ccc(O)cc2)C(=O)N[C@@H](Cc2c[nH]c3ccccc23)C(=O)N[C@@H](C)C(=O)N[C@@H](CCC(N)=O)C(=O)N[C@@H](CC(C)C)C(=O)N1)C(=O)N[C@@H](C)C(N)=O` (single isomer, unassigned) [compound 68], for which the EC50 is under 5 µM.
